What all share (assay): Post-emergence efficacy (glasshouse, spray application)
Holding throughout (type): in vivo

Assay [1] deals with Ipomoea hederacea (IPOHE). The settings on record: 312 h, read-out: Control of weed species after post-emergence application, IPOHE. As to the method: (§1) Seeds of a variety of test species were sown in standard soil in pots. After cultivation for 14 days (post-emergence) under controlled conditions in a glasshouse (at 24/16° C., day/night; 14 hours light; 65 humidity), the plants were sprayed with an aqueous spray solution derived from the dissolution of the technical active ingredient formula (I) in a small amount of acetone and a special solvent and emulsifier mixture referred to as IF50 (11.12% Emulsogen EL360 TM+44.44% N-methylpyrrolidone+44.44% Dowanol DPM glycol ether), to create a 50 g/l solution which was then diluted to required concentration using a solution of 0.25% or 1% Empicol ESC70 (Sodium lauryl ether sulphate)+1% ammonium sulphate in water as diluent.
(§2) The test plants were then grown in a glasshouse under controlled conditions (at 24/16° C., day/night; 14 hours light; 65% humidity) and watered twice daily. After 13 days the test was evaluated (100=total damage to plant; 0=no damage to plant).
(§3) Ipomoea hederacea (IPOHE), Euphorbia heterophylla (EPHHL), Chenopodium album (CHEAL), Amaranthus palmeri (AMAPA), Lolium perenne (LOLPE), Digitaria sanguinalis (DIGSA), Eleusine indica (ELEIN), Echinochloa crus-galli (ECHCG), Setaria faberi (SETFA)

A further assay has as its system Lolium perenne (LOLPE). The settings on record: 312 h, read-out: Control of weed species after post-emergence application, LOLPE. As for the experimental part: as §1, §2, §3
For assay [2], the system named is Digitaria sanguinalis (DIGSA). The settings on record: 312 h, read-out: Control of weed species after post-emergence application, DIGSA. As for the experimental part: as §1, §2, §3
In assay [3] the test system is Euphorbia heterophylla (EPHHL). The settings on record: 312 h, read-out: Control of weed species after post-emergence application, EPHHL. As to the method: as §1, §2, §3
The subject of assay [4] is Echinochloa crus-galli (ECHCG). The settings on record: 312 h, read-out: Control of weed species after post-emergence application, ECHCG. As to the method:
as §1, §2, §3

A further assay deals with Eleusine indica (ELEIN). The settings on record: 312 h, read-out: Control of weed species after post-emergence application, ELEIN. As to the method:
as §1, §2, §3

The test system of assay [5] is Amaranthus palmeri (AMAPA). The settings on record: 312 h, read-out: Control of weed species after post-emergence application, AMAPA. As for the experimental part: as §1, §2, §3
A further assay has as its system Setaria faberi (SETFA). The settings on record: 312 h, read-out: Control of weed species after post-emergence application, SETFA. As to the method: as §1, §2, §3
Assay [6] has as its system Chenopodium album (CHEAL). The settings on record: 312 h, read-out: Control of weed species after post-emergence application, CHEAL. As for the experimental part: as §1, §2, §3
Setting [7] is: Application rate 500 g/Ha, evaluated after 13 days, 100=total damage to plant, 0=no damage to plant.

Molecules are shown by their SMILES. Like-named read-outs stand apart in the source and are kept apart here.

For the compound `O=C(O)CNC(=O)C[n+]1ccc(-c2ncccn2)cn1` [Compound A1, 2-[[2-(4-pyrimidin-2-ylpyridazin-1-ium-1-yl)acetyl]amino]acetic acid 2,2,2-trifluoroacetate], the pest or weed control at 500 g/ha in assay [1] came out at 100%; in the assay with Lolium perenne (LOLPE), 70%; in assay [2], 90%; in [3], 90%; in [4] it was 70%; with Eleusine indica (ELEIN) it was 90%. Also, the pest or weed control at 500 g/ha in [5] was 100%; in the assay on Setaria faberi (SETFA), 60%; in assay [6], 100%.
As to `CCC(NC(=O)C[n+]1ccc(-c2ncccn2)cn1)C(=O)O` (stereo not shown) [Compound A2], the pest or weed control at 500 g/ha in assay [1] (setting [7]) stood at 100%; in the assay with Lolium perenne (LOLPE) (setting [7]), 40%; in assay [2] (setting [7]), 80%; in assay [3] (setting [7]), 100%; in assay [4] (setting [7]), 90%; in the assay on Eleusine indica (ELEIN) (setting [7]), 70%. Also, the pest or weed control at 500 g/ha worked out at 100% in assay [5] (setting [7]), 40% in the assay on Setaria faberi (SETFA) (setting [7]) and 90% in [6] (setting [7]).
Turning to `CCCC(NC(=O)C[n+]1ccc(-c2ncccn2)cn1)C(=O)O` (stereo not shown) [Compound A3], the pest or weed control at 500 g/ha is 70% in [1] (setting [7]); 50% in the assay with Lolium perenne (LOLPE) (setting [7]); 90% in [2] (setting [7]); 100% in assay [3] (setting [7]); 90% in [4] (setting [7]); 100% in the assay with Eleusine indica (ELEIN) (setting [7]). In addition, the pest or weed control at 500 g/ha in assay [5] (setting [7]) amounted to 100%; in the assay with Setaria faberi (SETFA) (setting [7]), 70%; in [6] (setting [7]), 100%.
Take `O=C(O)COCC[n+]1ccc(-c2ncccn2)cn1` [Compound A4]: the pest or weed control at 500 g/ha in assay [1] (setting [7]) was determined as 90%; in the assay with Lolium perenne (LOLPE) (setting [7]), 80%; in [2] (setting [7]) it was 90%; in assay [3] (setting [7]), 100%; in assay [4] (setting [7]), 90%; with Eleusine indica (ELEIN) (setting [7]) it was 100%. For the same compound, the pest or weed control at 500 g/ha (in assay [5] (setting [7]); in the assay on Setaria faberi (SETFA) (setting [7]); in [6] (setting [7])) was 100% each time.
`CCC(C)C(NC(=O)C[n+]1ccc(-c2ncccn2)cn1)C(=O)O` (stereo not shown) [Compound A5]: the pest or weed control at 500 g/ha in [1] (setting [7]) stood at 60%; in the assay on Lolium perenne (LOLPE) (setting [7]), 0%; in assay [2] (setting [7]), 10%; in assay [3] (setting [7]) it was 100%; in [4] (setting [7]), 30%; in the assay on Eleusine indica (ELEIN) (setting [7]) it was 10%. Also, the pest or weed control at 500 g/ha in [5] (setting [7]) was found to be 100%; with Setaria faberi (SETFA) (setting [7]), 10%; in assay [6] (setting [7]), 100%.
Consider `CC(C)CC(NC(=O)C[n+]1ccc(-c2ncccn2)cn1)C(=O)O` (stereo not shown) [Compound A6], for which the pest or weed control at 500 g/ha amounted to 90% in assay [1] (setting [7]); 40% in the assay on Lolium perenne (LOLPE) (setting [7]); 50% in [2] (setting [7]); 100% in assay [3] (setting [7]); 70% in [4] (setting [7]); 90% in the assay with Eleusine indica (ELEIN) (setting [7]). In addition, the pest or weed control at 500 g/ha in [5] (setting [7]) turned out to be 100%; in the assay on Setaria faberi (SETFA) (setting [7]) it was 50%; in [6] (setting [7]) it was 100%.
Take `NC(=O)CC(NC(=O)C[n+]1ccc(-c2ncccn2)cn1)C(=O)O` (stereo not shown) [Compound A7]: the pest or weed control at 500 g/ha in assay [1] (setting [7]) was found to be 0%; in the assay on Lolium perenne (LOLPE) (setting [7]), 0%; in assay [2] (setting [7]), 40%; in assay [3] (setting [7]) it was 30%; in assay [4] (setting [7]), 30%; in the assay on Eleusine indica (ELEIN) (setting [7]), 30%. The pest or weed control at 500 g/ha in assay [5] (setting [7]) amounted to 10%; with Setaria faberi (SETFA) (setting [7]), 40%; in assay [6] (setting [7]), 60%.
As for `CN(CC(=O)O)C(=O)C[n+]1ccc(-c2ncccn2)cn1` [Compound A8, 2-[methyl-[2-(4-pyrimidin-2-ylpyridazin-1-ium-1-yl)acetyl]amino]acetic acid 2,2,2-trifluoroacetate], the pest or weed control at 500 g/ha in [1] (setting [7]) was 60%; with Lolium perenne (LOLPE) (setting [7]) it was 40%; in assay [2] (setting [7]), 70%; in assay [3] (setting [7]), 100%; in [4] (setting [7]) it was 80%; in the assay with Eleusine indica (ELEIN) (setting [7]) it was 90%. Besides, the pest or weed control at 500 g/ha in assay [5] (setting [7]) was found to be 100%; in the assay on Setaria faberi (SETFA) (setting [7]), 70%; in assay [6] (setting [7]), 100%.
In the case of `O=C(O)CCC(=O)C[n+]1ccc(-c2ncccn2)cn1` [Compound A9, 4-oxo-5-(4-pyrimidin-2-ylpyridazin-1-ium-1-yl)pentanoic acid chloride], the pest or weed control at 500 g/ha stood at 40% in [1] (setting [7]); 0% in the assay on Lolium perenne (LOLPE) (setting [7]); 50% in assay [2] (setting [7]); 70% in assay [3] (setting [7]); 70% in assay [4] (setting [7]); 70% with Eleusine indica (ELEIN) (setting [7]). The pest or weed control at 500 g/ha in assay [5] (setting [7]) worked out at 70%; in the assay with Setaria faberi (SETFA) (setting [7]), 30%; in assay [6] (setting [7]), 70%.
With `O=C(O)CNC(=O)CNC(=O)C[n+]1ccc(-c2ncccn2)cn1` [Compound A10], the pest or weed control at 500 g/ha in assay [1] (setting [7]) came to 40%; in the assay on Lolium perenne (LOLPE) (setting [7]), 40%; in assay [2] (setting [7]), 80%; in [3] (setting [7]), 90%; in assay [4] (setting [7]), 70%; in the assay with Eleusine indica (ELEIN) (setting [7]) it was 90%. Moreover, the pest or weed control at 500 g/ha stood at 90% in [5] (setting [7]), 80% in the assay with Setaria faberi (SETFA) (setting [7]) and 60% in assay [6] (setting [7]).
Turning to `OCCOCC[n+]1ccc(-c2ncccn2)cn1` [Compound A17, 2-[2-(4-pyrimidin-2-ylpyridazin-1-ium-1-yl)ethoxy]ethanol 2,2,2-trifluoroacetate], the pest or weed control at 500 g/ha in assay [1] (setting [7]) was 0%; with Lolium perenne (LOLPE) (setting [7]), 10%; in assay [3] (setting [7]), 30%; in [4] (setting [7]), 30%; in the assay with Eleusine indica (ELEIN) (setting [7]), 20%; in assay [5] (setting [7]), 30%. For the same compound, the results for the pest or weed control at 500 g/ha (in the assay with Setaria faberi (SETFA) (setting [7]); in [6] (setting [7])) were 20% and 50%, respectively.
For the compound `O=C(O)CNS(=O)(=O)CC[n+]1ccc(-c2ncccn2)cn1` [Compound A29, 2-[2-(4-pyrimidin-2-ylpyridazin-1-ium-1-yl)ethylsulfonylamino]-acetic acid 2,2,2-trifluoroacetate], the pest or weed control at 500 g/ha in [1] (setting [7]) is 40%; in the assay with Lolium perenne (LOLPE) (setting [7]) it was 50%; in assay [3] (setting [7]), 90%; in assay [4] (setting [7]), 50%; in the assay on Eleusine indica (ELEIN) (setting [7]) it was 70%; in assay [5] (setting [7]), 100%. Moreover, the figures for the pest or weed control at 500 g/ha (in the assay with Setaria faberi (SETFA) (setting [7]); in [6] (setting [7])) were 60% and 70%, respectively.

Values taken from patent US20220104492A1, “PYRIDAZINIUM COMPOUNDS FOR USE IN A METHOD OF CONTROLLING UNWANTED PLANT GROWTH” (SYNGENTA CROP PROTECTION AG, priority 2019, published 2022).
